Test results: patent US20220267268A1, “NEW TRICYCLIC 5-HT2 ANTAGONISTS” (Anamar AB, priority 2019, published 2022)
Where a name gives a salt, the structure may show the parent alone. Marks after values point to notes of the source that are not given here.

Key:
[1] = target: T1, 5-HT2B receptor (Homo sapiens, UniProt P41595); experiment: 5-HT2B receptor binding, ligand displacement assay with 3H-LSD radioligand; conditions: human receptor in CHO-K1; for inhibition at 0.001 µM: 1 nM compound; for inhibition at 0.01 µM: 10 nM compound; for inhibition at 0.1 µM: 100 nM compound
T1 construct: host or cells: CHO-K1
Experimental: (§1) 5-HT2B receptor binding (performed at Eurofins Panlabs Taiwan, Ltd.) to human receptor protein expressed in CHO-K1 cells was determined in a ligand displacement assay using ^3H-lysergic acid diethylamide (LSD) as radioligand and ketanserine as a standard reference compound, or alternatively*, with ^3H-mesulergine and SB 206553 as reference. Data is presented as % displacement of radioligand at indicated compound concentrations, see Table 1.

[2] = target: T1, 5-HT2B receptor; experiment: 5-HT2B receptor agonism, IP-1 accumulation in CHO-K1 cells without prior 5-HT stimulation; format: cell-based; conditions: % of IP-1 accumulation induced by 5-HT (1 uM)
Experimental: (§2) 5-HT2B receptor antagonism (performed at Eurofins Panlabs Taiwan, Ltd.) was determined in CHO-K1 cells expressing human receptor protein as inhibition of 5-HT (5 nM) stimulated IP-1 accumulation measured by HTRF quantitation. SB 206553 was used as a standard reference compound. The antagonistic response is expressed as % inhibition of the 5-HT induced effect, see Table 2.
5-HT2B receptor agonism (performed at Eurofins Panlabs Taiwan, Ltd.) was determined in the same model as described above in Example 50 without prior stimulation with 5-HT. The agonistic response is expressed as % of the IP-1 accumulation induced by 5-HT (1 uM) stimulation, see Table 3.

[3] = target: T1, 5-HT2B receptor; experiment: 5-HT2B receptor antagonism, inhibition of 5-HT stimulated IP-1 accumulation (HTRF) in CHO-K1 cells; format: cell-based; conditions: 5-HT (5 nM) stimulated IP-1 accumulation
Experimental: as §2

[4] = target: T1, 5-HT2B receptor; experiment: 5-HT2B receptor binding, ligand displacement assay, alternative (*) with 3H-mesulergine; conditions: * 3H-mesulergine radioligand, SB 206553 reference; for 5-HT2B receptor binding (% displacement) 1 nM: 1 nM compound; for inhibition at 0.01 µM: 10 nM compound; for 5-HT2B receptor binding (% displacement) 100 nM: 100 nM compound
Experimental: as §1

T1 sequence (P41595 whole entry): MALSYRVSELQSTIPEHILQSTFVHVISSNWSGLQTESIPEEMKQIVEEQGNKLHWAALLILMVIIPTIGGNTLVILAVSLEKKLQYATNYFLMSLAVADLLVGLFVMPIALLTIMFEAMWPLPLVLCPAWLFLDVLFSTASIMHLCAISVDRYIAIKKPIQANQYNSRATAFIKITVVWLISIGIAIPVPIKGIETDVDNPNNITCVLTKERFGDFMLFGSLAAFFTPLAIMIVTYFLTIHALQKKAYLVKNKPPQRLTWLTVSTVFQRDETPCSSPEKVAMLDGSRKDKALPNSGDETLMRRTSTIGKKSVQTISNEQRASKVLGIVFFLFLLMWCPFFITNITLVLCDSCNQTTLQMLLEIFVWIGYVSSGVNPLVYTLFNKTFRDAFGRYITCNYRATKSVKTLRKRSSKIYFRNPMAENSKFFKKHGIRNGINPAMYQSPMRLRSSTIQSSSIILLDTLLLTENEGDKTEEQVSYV

CC1CN(C(=N)N)c2ccc3c(Cl)cccc3c21.Cl (stereo not shown) [Example 11, 6-Chloro-1-methyl-1,2-dihydro-3H-benzo[e]indole-3-carboximidamide hydrochloride]
inhibition at 0.001 µM [1]: 63% | inhibition at 0.01 µM [1]: 97% | inhibition at 0.1 µM [1]: 103% | 5-HT2B receptor agonism (% of positive control) 1 nM ([2]; 1 nM compound): 1% | 5-HT2B receptor agonism (% of positive control) 10 nM ([2]; 10 nM compound): 5% | 5-HT2B receptor agonism (% of positive control) 100 nM ([2]; 100 nM compound): −2% | 5-HT2B receptor agonism (% of positive control) 1000 nM ([2]; 1000 nM compound): 1% | inhibition at 0.001 µM ([3]; 1 nM compound): 53% | inhibition at 0.01 µM ([3]; 10 nM compound): 89% | inhibition at 0.1 µM ([3]; 100 nM compound): 99% | inhibition at 1 µM ([3]; 1000 nM compound): 96%

CC1CN(C(=N)N)c2ccc3c(C(F)(F)F)cccc3c21 (stereo not shown) [Example 35, 1-Methyl-6-(trifluoromethyl)-1,2-dihydro-3H-benzo[e]indole-3-carboximidamide 2,2,2-trifluoroacetic acid salt]
inhibition at 0.001 µM [1]: 11% | inhibition at 0.01 µM [1]: 61% | inhibition at 0.1 µM [1]: 92% | 5-HT2B receptor binding (% displacement) 1 nM [4]: 21% | inhibition at 0.01 µM [4]: 52% | 5-HT2B receptor binding (% displacement) 100 nM [4]: 91%

C#CCNC(=N)N1CC(C)c2c1ccc1c(Br)cccc21 (stereo not shown) [Example 18, 6-Bromo-1-methyl-N-(prop-2-yn-1-yl)-1,2-dihydro-3H-benzo[e]indole-3-carboximidamide 2,2,2-trifluoroacetic acid salt]
inhibition at 0.01 µM [1]: 104%

CC1CN(C(=N)N)c2ccc3c(S(C)(=O)=O)cccc3c21 (stereo not shown) [Example 39, 1-Methyl-6-(methylsulfonyl)-1,2-dihydro-3H-benzo[e]indole-3-carboximidamide 2,2,2-trifluoroacetic acid salt]
5-HT2B receptor binding (% displacement) 1 nM [4]: 6* % | inhibition at 0.01 µM [4]: 8% | 5-HT2B receptor binding (% displacement) 100 nM [4]: 28* %

CCCCNC(=N)N1CC(C)c2c1ccc1c(Br)cccc21 (stereo not shown) [Example 15, 6-Bromo-N-butyl-1-methyl-1,2-dihydro-3H-benzo[e]indole-3-carboximidamide 2,2,2-trifluoroacetic acid salt]
inhibition at 0.01 µM [1]: 103%

CC1CN(C(=N)NCc2ccc(F)c(F)c2)c2ccc3ccccc3c21 (stereo not shown) [Example 10, N-(3,4-Difluorobenzyl)-1-methyl-1,2-dihydro-3H-benzo[e]indole-3-carboximidamide hydrochloride]
inhibition at 0.001 µM [1]: 7% | inhibition at 0.01 µM [1]: 50% | inhibition at 0.1 µM [1]: 91%

CC1CN(C(=N)N)c2ccc3c([S+](C)[O-])cccc3c21 (stereo not shown) [Example 38, 1-Methyl-6-(methylsulfinyl)-1,2-dihydro-3H-benzo[e]indole-3-carboximidamide 2,2,2-trifluoroacetic acid salt]
5-HT2B receptor binding (% displacement) 1 nM [4]: 4* % | inhibition at 0.01 µM [4]: 7% | 5-HT2B receptor binding (% displacement) 100 nM [4]: 20* %

CC1CN(C(=N)Nc2ccc(F)cc2)c2ccc3c(Br)cccc3c21 (stereo not shown) [Example 30, 6-Bromo-N-(4-fluorophenyl)-1-methyl-1,2-dihydro-3H-benzo[e]indole-3-carboximidamide 2,2,2-trifluoroacetic acid salt]
inhibition at 0.01 µM [1]: 105%

CC1CN(C(=N)N)c2ccc3c(-c4ccccc4)cccc3c21 (stereo not shown) [Example 41, 1-Methyl-6-phenyl-1,2-dihydro-3H-benzo[e]indole-3-carboximidamide hydrochloride]
inhibition at 0.001 µM [1]: 0% | inhibition at 0.01 µM [1]: 7% | inhibition at 0.1 µM [1]: 40%

C#Cc1cccc2c3c(ccc12)N(C(=N)N)CC3C (stereo not shown) [Example 40, 6-Ethynyl-1-methyl-1,2-dihydro-3H-benzo[e]indole-3-carboximidamide 2,2,2-trifluoroacetic acid salt]
5-HT2B receptor binding (% displacement) 1 nM [4]: 26* % | inhibition at 0.01 µM [4]: 64% | 5-HT2B receptor binding (% displacement) 100 nM [4]: 94* %

CC1CN(C(=N)N)c2cc(F)c3c(Cl)cccc3c21 (stereo not shown) [Example 45, 6-Chloro-5-fluoro-1-methyl-1,2-dihydro-3H-benzo[e]indole-3-carboximidamide hydrochloride]
inhibition at 0.001 µM [1]: 77% | inhibition at 0.01 µM [1]: 100% | inhibition at 0.1 µM [1]: 98%

CC1CN(C(=N)NCc2ccc(Cl)cc2)c2ccc3ccccc3c21 (stereo not shown) [Example 9, N-(4-Chlorobenzyl)-1-methyl-1,2-dihydro-3H-benzo[e]indole-3-carboximidamide hydrochloride]
inhibition at 0.001 µM [1]: 26% | inhibition at 0.01 µM [1]: 55% | inhibition at 0.1 µM [1]: 95%

CC1CN(C(=N)N)c2ncc3ccccc3c21 (stereo not shown) [Example 4, 1-Methyl-1,2-dihydro-3H-pyrrolo[2,3-c]isoquinoline-3-carboximidamide hydrochloride]
inhibition at 0.001 µM [1]: -1% | inhibition at 0.01 µM [1]: 16% | inhibition at 0.1 µM [1]: 64%

COc1cccc2c3c(ccc12)N(C(=N)N)CC3C (stereo not shown) [Example 36, 6-Methoxy-1-methyl-1,2-dihydro-3H-benzo[e]indole-3-carboximidamide 2,2,2-trifluoroacetic acid salt]
5-HT2B receptor binding (% displacement) 1 nM [4]: 10* % | inhibition at 0.01 µM [4]: 48% | 5-HT2B receptor binding (% displacement) 100 nM [4]: 90* %

CNC(=N)N1CC(C)c2c1ccc1ccccc21 (stereo not shown) [Example 6, N,1-Dimethyl-1,2-dihydro-3H-benzo[e]indole-3-carboximidamide hydrochloride]
inhibition at 0.001 µM [1]: 18% | inhibition at 0.01 µM [1]: 57% | inhibition at 0.1 µM [1]: 93%

CCCCNC(=N)N1CC(C)c2c1ccc1ccccc21 (stereo not shown) [Example 7, N-Butyl-1-methyl-1,2-dihydro-3H-benzo[e]indole-3-carboximidamide hydrochloride]
inhibition at 0.001 µM [1]: 32% | inhibition at 0.01 µM [1]: 77% | inhibition at 0.1 µM [1]: 96%

CC1CN(C(=N)NCc2ccc(F)cc2)c2ccc3c(Br)cccc3c21 (stereo not shown) [Example 26, 6-Bromo-N-(4-fluorobenzyl)-1-methyl-1,2-dihydro-3H-benzo[e]indole-3-carboximidamide 2,2,2-trifluoroacetic acid salt]
inhibition at 0.001 µM [1]: 43% | inhibition at 0.01 µM [1]: 90% | inhibition at 0.1 µM [1]: 98%

CC1CN(C(=N)N)c2cnc3ccccc3c21 (stereo not shown) [Example 5, 1-Methyl-1,2-dihydro-3H-pyrrolo[2,3-c]quinoline-3-carboximidamide hydrochloride]
inhibition at 0.001 µM [1]: 11% | inhibition at 0.01 µM [1]: 28% | inhibition at 0.1 µM [1]: 71%

CC1CN(C(=N)N)c2ccc3c(I)cccc3c21 (stereo not shown) [Example 34, 6-Iodo-1-methyl-1,2-dihydro-3H-benzo[e]indole-3-carboximidamide 2,2,2-trifluoroacetic acid salt]
5-HT2B receptor binding (% displacement) 1 nM [4]: 30* % | inhibition at 0.01 µM [4]: 88% | 5-HT2B receptor binding (% displacement) 100 nM [4]: 102* %

COCCNC(=N)N1CC(C)c2c1ccc1c(Br)cccc21 (stereo not shown) [Example 23, 6-Bromo-N-(2-methoxyethyl)-1-methyl-1,2-dihydro-3H-benzo[e]indole-3-carboximidamide 2,2,2-trifluoroacetic acid salt]
inhibition at 0.01 µM [1]: 100%

CC1CN(C(=N)NCC(F)(F)F)c2ccc3c(Br)cccc3c21 (stereo not shown) [Example 22, 6-Bromo-1-methyl-N-(2,2,2-trifluoroethyl)-1,2-dihydro-3H-benzo[e]indole-3-carboximidamide 2,2,2-trifluoroacetic acid salt]
inhibition at 0.01 µM [1]: 95%

CSc1cccc2c3c(ccc12)N(C(=N)N)CC3C (stereo not shown) [Example 37, 1-Methyl-6-(methylthio)-1,2-dihydro-3H-benzo[e]indole-3-carboximidamide 2,2,2-trifluoroacetic acid salt]
5-HT2B receptor binding (% displacement) 1 nM [4]: 5* % | inhibition at 0.01 µM [4]: 53% | 5-HT2B receptor binding (% displacement) 100 nM [4]: 94* %

COc1cc2c(c3ccccc13)C(C)CN2C(=N)N (stereo not shown) [Example 44, 5-Methoxy-1-methyl-1,2-dihydro-3H-benzo[e]indole-3-carboximidamide hydrochloride]
inhibition at 0.001 µM [1]: 9% | inhibition at 0.01 µM [1]: 13% | inhibition at 0.1 µM [1]: 70%

CCCc1cccc2c3c(ccc12)N(C(=N)N)CC3C (stereo not shown) [Example 43, 1-Methyl-6-propyl-1,2-dihydro-3H-benzo[e]indole-3-carboximidamide hydrochloride]
inhibition at 0.001 µM [1]: 21% | inhibition at 0.01 µM [1]: 70% | inhibition at 0.1 µM [1]: 96%

CC1CN(C(=N)N)c2ccc3c(C4CC4)cccc3c21 (stereo not shown) [Example 42, 6-Cyclopropyl-1-methyl-1,2-dihydro-3H-benzo[e]indole-3-carboximidamide hydrochloride]
inhibition at 0.001 µM [1]: 1% | inhibition at 0.01 µM [1]: 56% | inhibition at 0.1 µM [1]: 96%

CC1CN(C(=N)NCc2ccccc2)c2ccc3ccccc3c21 (stereo not shown) [Example 8, N-Benzyl-1-methyl-1,2-dihydro-3H-benzo[e]indole-3-carboximidamide hydrochloride]
inhibition at 0.001 µM [1]: 30% | inhibition at 0.01 µM [1]: 80% | inhibition at 0.1 µM [1]: 99%
